A value given as a limit tells only on which side of the number the result lay.

By melting point is commonly meant the temperature, or range, at which the solid turns liquid.

Take `O=C(NCCO)/C(=C/c1ccc(C2CC2)cc1)NC(=O)c1ccc(OCCc2ccc3c(c2)OCO3)cc1`: the melting point was in the range of 113 to 115 °C. The value for `CCc1nc2c(N)nc3cc(/C=C/C(=O)N4CCOCC4)ccc3c2n1CC1CCOCC1` was above 260 °C. The value for `COCCOc1ccc(C2=NCCNC2=O)cc1` was 130 to 132 °C; that for `O=C(OCCBr)N1CCCSC1=C[N+](=O)[O-]` was 79 to 81 °C; that for `CC1(C)CC(=O)C(Cc2ccc(Cl)cc2)C(=O)C1` was 188 to 190 °C. To `CC(=O)NC[C@H]1CN(c2ccc(N3CC(C)(O)C3)c(F)c2)C(=O)O1` belongs 152 to 153 °C. In turn, `Cc1ccc(CN2C(=O)C3(COc4cc5c(cc43)OCO5)c3ccccc32)o1` (stereo not drawn) displayed a melting point of 117 to 119 °C. The molecule `COC(=O)[C@@H]1Cc2ccccc2N1c1ccc(Cl)nn1` displayed a melting point of 133 to 134 °C. To `CCCC(CCC)n1nnc2c(Nc3c(C)cc(C)cc3Br)nc(C)nc21` belongs 141 to 142 °C; to `CN(C)C=Nc1sc(C=O)c(Br)c1C#N`, 220 °C; to `CCN1c2ccc(Cl)cc2C=C(C(=O)O)C1C(F)(F)F` (stereo not drawn), 201 to 202 °C.

Regarding `CCOC(=O)c1c(C2CC2)nc(CC)n1Cc1ccc2oc(-c3ccccc3-c3nnn[nH]3)c(Br)c2c1`, the melting point fell in the range of 132 to 137 °C. For the molecule `Nc1nc(N)c2ncn(C3OC(CO)C(O)C3O)c2n1` (stereo not drawn), the melting point lay within 238 to 240 °C. The value for `C[C@@H](CO)NS(=O)(=O)c1ccccc1[N+](=O)[O-]` was 82 to 83 °C. To `CCCC(c1ccc(C(N)=O)cc1)n1ccnc1` (stereo not drawn) belongs 132 °C; to `Cc1cn(-c2cc(NC(=O)c3ccc(C)c(C#Cc4ccc(NC5CCC5)nn4)c3)cc(C(F)(F)F)c2)cn1`, 223 to 225 °C; to `O=C(O)CN1C(=O)C(c2ccccc2)c2ccccc21` (stereo not drawn), 180 to 181 °C. The value for `CC(C)Sc1cc2c(cc1Cl)N=CNS2(=O)=O` was 231 to 232 °C.

`CC(C)(C)OC1CCCC2C(=O)CCCC12C` (stereo not drawn) gave a melting point of 78 to 79 °C. In turn, `Cc1ccc(NCCC(N)=S)c(C)c1` displayed a melting point of 104 to 105 °C.

Consider `COC(=O)c1nc(-c2ccccc2)n2c1CN=C(c1ccccc1F)c1cc(Cl)ccc1-2`, for which the melting point fell in the range of 208 to 209 °C. The value for `CCc1c(C)[nH]c2cc(OCCN3CCOCC3)c(Cl)cc2c1=O` was 270 to 271 °C; that for `COC(=O)c1ccc(CN2C(=O)CCc3c(CC4SC(=O)NC4=O)ccc(OC)c32)cc1` (stereo not drawn) was 193 to 196 °C. To `CC1(OC(=O)C#CC2C(C(=O)OC(C#N)c3cccc(Oc4ccccc4)c3)C2(C)C)CCC1` (stereo not drawn) belongs 76 °C.

In turn, `CC(C)(C)OC(=O)N1CCn2c(cc3ccccc32)C1` gave a melting point of 103 to 105 °C. The value for `CON=C1c2ccccc2-c2c(N3CCNCC3)nc3ccccc3c21` was 149 to 150 °C; that for `COc1cc2c(cc1OC)CN(CCc1ccc(NC(=O)c3cccc4c(=O)c5cccc(OC)c5[nH]c34)cc1)C2` was 215 to 225 °C; that for `NC(=O)N(CC(=O)OCCCCCCOC(=O)CN(C(N)=O)c1ccccc1)c1ccccc1` was 131 to 140 °C.

For the molecule `O=C(OCc1ccccc1)c1cc(Cl)c(Cl)c(Cl)n1`, the melting point is 125 to 126 °C. Take `ON=C(Cl)c1ccc(F)cc1`: the melting point is 74.5 to 75 °C. To `CN(C(=S)n1cc(F)c(N)nc1=O)c1ccccc1` belongs 192 to 196 °C. `COc1ccc2[nH]c(C(C)=O)cc2c1`: the melting point was 164 to 167 °C. The value for `CC(CCCn1c(C)nc2c(N)nc3ccccc3c21)=NOCc1ccccc1` was 146 to 148 °C; that for `CCc1nn(-c2ccccc2)nc1C(C#N)C(=O)c1c(C)c(C)nn1C` (stereo not drawn) was 119 °C; that for `CCOCCNC(=O)OCCCc1ccc(OCCOC)cc1Oc1ncc(C(F)(F)F)cc1Cl` was 66 to 68 °C. To `COc1ccc([C@@H]2CN(C)CC[C@@H]2NC(=O)c2cccc(C(F)(F)F)c2)cc1OC` (relative stereo) belongs 122 to 124 °C.

As to `CC(=O)c1ccc2c(c1)OC(C(N)=O)CO2` (stereo not drawn), the melting point is 212 °C. To `Cc1ccccc1N1CCN(CCCCCC(=O)O)CC1` belongs 125 °C. `NC1=NS(=O)(=O)N=C1NCCCN(Cc1ccccc1)c1ccccn1` registered a melting point of 192 to 193 °C. `COc1c(C(=O)c2ccc([N+](=O)[O-])cc2Cl)c(C)nn1C`: the melting point is 97 to 98 °C. To `CC(C)n1nc(-c2sc(NC(=O)C3CC3)nc2-c2ccccc2)ccc1=O` belongs 226 to 227 °C; to `COc1c(F)ccc2c1C(=O)N1CC[C@H]1c1c(-c3noc(CN)n3)ncn1-2`, 196 to 198 °C; to `C[C@]12Cc3ccccc3[C@H]1Nc1ccccc12` (relative stereo), 72 °C. To `Clc1cc(NCCc2c[nH]cn2)ccn1` belongs 164 to 165 °C. The value for `Cc1ccc(N)c(C(=O)c2ccc(F)cc2)c1` was 70 to 71.5 °C. In the case of `N#CC(=Cc1ccc(C=Cc2ccccc2)cc1)S(=O)(=O)c1ccccc1`, the melting point was 179 to 183 °C. The value for `O=C(O)C1C2OCCC21Br` (mixture of isomers) was 196 to 198 °C. For `O=C(CC(O)(Cn1cncn1)c1ccc(Cl)cc1Cl)N1CC1` (stereo not drawn), the melting point was 151 to 153 °C. Consider `CC(=O)C(C)N(C(=O)CCl)c1c(C)cccc1C` (stereo not drawn), for which the melting point is 78 to 82 °C. In the case of `COC(=O)CNC(=O)c1cc2cc(Cl)ccc2[nH]1`, the melting point was 252 to 254 °C. The value for `CC(C)NCC(O)C(Oc1ccccc1)c1ccccc1` (stereo not drawn) was 95 to 96 °C. The molecule `CCOC(=O)c1coc2ccc(-c3nnc(C)o3)cc12` yielded a melting point of 135 to 136 °C.

On to `CC1CCNC(=C2C(=O)CC(C)(C)CC2=O)N1` (stereo not drawn), for which the melting point was 164 to 165 °C. As to `O=C(NCC1Cc2c(cccc2-c2ccccc2)O1)OCc1ccccc1` (stereo not drawn), the melting point was 132 to 134 °C.

Molecule `O=C1CN2Cc3cc(OCCCC(=O)N(CCCCCCOC(=O)c4ccccc4)C4CCCCC4)ccc3N=C2N1` displayed a melting point of 94 to 95 °C. To `CC(C)NCC(O)c1cc(F)cc(C#N)c1` (stereo not drawn) belongs 85.5 to 86.5 °C; to `CC1C(C)(C)c2ccc(C(=O)CCC(=O)O)cc2C1(C)C` (stereo not drawn), 161 °C. The value for `COc1cc(NC(=S)NC(=O)c2ccccc2)cc(-c2ccccc2)c1` was 149 °C. To `Cc1ccc(-n2nc(C#N)cc2-c2ccc(S(C)(=O)=O)cc2)cc1Cl` belongs 174 to 176 °C; to `Cc1c(C=C(C#N)C#N)cc(C(C)(C)C)c(O)c1Br`, 144 °C; to `COc1nc2cccc(C(=O)O)c2n1Cc1ccc(-c2ccccc2-c2nc(=O)o[nH]2)cc1`, 189 to 190 °C. In the case of `C[C@H]1COS(=O)(=O)N1C(=O)OC(C)(C)C`, the melting point is 121 to 122 °C. To `Cc1oc(-c2ccccc2)nc1CCc1ccc(CCCC2OC(=O)NC2=O)cc1` (stereo not drawn) belongs 112 to 113 °C; to `CC(C)Oc1ccc(C(=O)c2ccc([N+](=O)[O-])cc2)cc1`, 136 to 137 °C; to `O=Cc1ccccc1C(=O)c1ccc(Cl)cc1`, 112 to 113 °C.

`Cc1c(Sc2ccccc2)c2cccc3c2n1C(CN1CCOCC1)CO3` (single isomer, unassigned; (+)) had a melting point of 126 to 128 °C. The value for `CC1(C)Oc2ccc(C#N)cc2[C@H](N(Cc2ncc[nH]2)c2ccc(Cl)cc2)[C@H]1O` was 266 to 267 °C; that for `CC(C)(COc1ccc(O)c(C(N)=O)c1)NCC(O)COc1ccccc1C#N` (stereo not drawn) was 125 to 126 °C. As for `COC1(c2cc(F)cc(Sc3ccc(C(F)(F)c4ccc(F)cc4)cc3)c2)CCOCC1`, the melting point lay in the range of 54 to 57 °C. To `COc1nccc2cc(S(N)(=O)=O)oc12` belongs 204 to 206 °C.

As for `C=Cc1cc(OC(C)=O)cc2nc(-c3ccc(OC(C)=O)c(F)c3)oc12`, the melting point lay in the range of 154 to 156 °C.

Regarding `Cc1cc([N+](=O)[O-])cc(C=O)c1O`, the melting point lay in the range of 132 to 133 °C. To `O=C1CCSc2cc(Br)ccc21` belongs 55 to 57 °C; to `CCn1nc(Cc2c(Cl)cncc2Cl)c2ccc(OC)cc2c1=O`, 150 to 151 °C. The value for `CCC(O)CN1N=C(c2ccc(Cl)cc2)C2CCC2C1=O` (stereo not drawn) was 116 to 119 °C; that for `CCCc1nc2ccc(OC(F)(F)F)cc2[nH]1` was 88 to 90 °C; that for `CC1CC2C3CC(Cl)C4=CC(=O)C=CC4(C)C3C(O)CC2(C)C1C(=O)COC(=O)C(C)(C)C` (stereo not drawn) was 189 °C. Consider `O=C(C=Cc1ccccc1)c1cccc(O)c1`, for which the melting point is 143 to 147 °C. The value for `CCC(O)c1ccc(-c2ccc(Cl)cc2)cc1` (stereo not drawn) was 114 to 116 °C; that for `FC(F)(F)c1ccc2[nH]nc(-c3ccccc3)c2c1` was 152 °C; that for `NC(=O)c1ccc(-c2ccc(O)cc2)cc1Cl` was 215 to 216 °C.

In turn, `COc1ccc(C(=O)Nc2ccccc2)cc1NS(=O)(=O)c1ccc(NC(C)=O)cc1` displayed a melting point of 250 to 251 °C. To `OCCc1c2ccccc2c(Br)c2ccccc12` belongs 180 to 182 °C; to `C#CCCCOc1ccc(C=O)cc1OC`, 91 to 92 °C; to `CCNC(=O)c1ccc(C=O)cc1`, 100 °C.

As for `CCCCCCCCCCC[C@@H](O)CC(=O)OC`, the melting point is 42 to 43 °C.

With `CCOC(=O)C(=O)Nc1ccc(Cl)ccc1=O`, the melting point lay within 178 to 179 °C. To `Cc1ccc(I)c(C(O)(C(F)(F)F)C(F)(F)F)c1` belongs 38 to 39 °C; to `c1c(N2CCNCC2)nc(N2CCC3(CC2)OCCO3)nc1N1CCC2(CC1)OCCO2`, 130 to 140 °C; to `CSc1sc(C(=O)N2CCCCCC2)c2c1-c1oncc1C(C)(C)C2`, 99 to 101 °C.

With `Cc1cc(C2CCN(S(=O)(=O)C3(C(=O)NO)CCOCC3)CC2)ccc1-c1cccc(OC[C@H](O)CO)c1`, the melting point was 141 to 145 °C.

As to `CCOC(=O)Cc1c(-c2ccccc2)c2cc(C)c(C)cc2oc1=O`, the melting point was 127 to 128 °C. To `COC(=O)NC1CCc2ccc(NC(=O)c3cccc(C)c3-c3ccc(C(F)(F)F)cc3)cc2CC1` (stereo not drawn) belongs 190 to 193 °C.

Source of the values: a melting point compilation (Tetko et al.; mined from patent text by program, amines drawn as free bases though some values may be those of a salt).
